From PubChem BioAssay AID1963830 (Molecular Pharmacology Branch, DTP, NCI, 2024)
pIC50: −log10 of the molar value. Values joined by “and” are separate entries in the source; they are usually repeats but may differ in a detail not shown here. Equal entries are not always repeated.

Test system: 922993-354-T-J3-PDC complex spheroid viability
Experiment: Anticancer human tumor 922993-354-T-J3-PDC patient-derived endometrial carcinoma cell line growth inhibition [POLQ]
Details: for viability, T/C: stronger effect = lower value
Procedure: Multicellular complex tumor spheroid response to Polymerase (POL) inhibitors (novobiocin, ART-558, RP6685) in combination with a variety of drugs and investigational agents in selected tumor cell lines
The POL inhibitors (novobiocin, ART-558, and RP6685) were evaluated both individually and in combination with standard of care and investigational anticancer small molecules within a complex spheroid model of solid tumors. . Complex spheroids include a stromal component modeled by human endothelial cells (HUVEC) and fibroblasts modeled by human mesenchymal stem cells (MSCs). The concentration ranges selected for each drug and investigational agent were based upon clinically achievable concentrations if the clinical Cmax of the agent was known.
Compounds. The drugs and investigational agents: novobiocin (NSC847541), ART-558 (NSC835418), RP-6685 (NSC848927), peposertib (NSC802822), ceralasertib (NSC780249), elimusertib (NSC800525), camonsertib (NSC841442), AZD-1390 (NSC803789), olaparib (NSC753686), talazoparib (NSC767125), rucaparib (NSC756644), sotorasib (NSC818433), MRTX-1133 (NSC836407), SN-38 (NSC673596), topotecan (NSC609699), epotoside (NSC141540), doxorubicin (NSC123127), gemcitabine (NSC613327), 5-fluorouracil (NSC19893), paclitaxel (NSC125973), vemurafenib (NSC761431), MSA-2 (NSC828583), SN-011 (NSC837082), adavosertib (NSC754352), prexasertib (NSC758257), carboplatin (NSC241240) and oxaliplatin (NSC266046), were obtained from the National Cancer Institute (NCI) Developmental Therapeutics Program Chemical Repository (21). The FDA-approved anticancer drug set is available from the Developmental Therapeutics Program at https://dtp.cancer.gov/organization/dscb/obtaining/. […] The stock solutions were prepared in dimethyl sulfoxide (DMSO, Sigma-Aldrich, St. Louis, MO, cat. D2650), except for the platinum compounds which were prepared in saline (Quality Biological, Gaithersburg, MD, cat. 114-055-101), at 800-fold the tested concentration and stored at -70 degrees C prior to their use. All drugs and investigational agents were tested over a range starting from a high concentration at or near the clinical Cmax and decreasing in half-log increments. If the clinical Cmax for an agent had not been determined, the highest concentration tested was 10 microM, except for SN-38, which was tested at a high concentration of 1 microM.
Cell Culture. All cells were maintained in an incubator at 37 degrees C and 5% CO2 with 95% humidity. The PDC lines were cultured according to standard operating procedures established by the NCI PDMR (https://pdmr.cancer.gov). Table 3 of the manuscript, lists the cell lines along with the number of the three cell types plated to form the mct-spheroids and media for tumor cell growth. After thawing, all PDC lines, except 997537-175-T-J1-PDC and 415267-285-R-J2-PDC, were cultured in Matrigel-coated flasks prepared with a working solution of 1X Ham's F-12 nutrient mix, without supplementation (Thermo Fisher Scientific, cat. 11765054), 100 U/mL penicillin-streptomycin (Thermo Fisher Scientific, cat. 15140122), and 2.5% Matrigel (Corning Inc., Corning, NY, cat. 354248) for the first three passages. The two PDC lines 997537-175-T-J1-PDC and 415267-285-R-J2-PDC were cultured on uncoated flasks. The 857933-349-R-J2-PDC line was cultured in 6C/Colon 1B media containing advanced DMEM/F-12 (Thermo Fisher Scientific, cat. 12634028), 10 mM HEPES (Thermo Fisher Scientific, cat. 15630080), 1X GlutaMAX supplement (Thermo Fisher Scientific, cat. 35050061), 0.1 mg/mL primocin (InvivoGen, San Diego, CA, cat. ant-pm-2), 10% defined fetal bovine serum, heat inactivated (HyClone Laboratories Inc., Logan, UT, cat. SH30070.03HI), 50% L-WRN conditioned media (ATCC, cat. CRL-3276), 1.25 mM N-Acetyl-L-cysteine (Sigma-Aldrich, cat. A9165), 10 mM nicotinamide (Sigma-Aldrich, cat. N0636), 1X B-27 supplement (Thermo Fisher Scientific, cat. 17504044), 1X N-2 supplement (Thermo Fisher Scientific, cat. […]
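Further: spheroids exposed to the agents for one week.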
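Wherever viability, T/C is given: 100% = DMSO vehicle control wells.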

Structure (SMILES): COC1C(OC(N)=O)C(O)C(Oc2ccc3c(O)c(NC(=O)c4ccc(O)c(CC=C(C)C)c4)c(=O)oc3c2C)OC1(C)C (configuration not stated)
- viability, T/C (compound 0.0316 µM): 100% [middle of 13 runs]
- viability, T/C (compound 0.1 µM): 102% [middle of 13 runs]
- viability, T/C (compound 0.316 µM): 98.2% [middle of 13 runs]
- viability, T/C (compound 1 µM): 101% [middle of 13 runs]
- viability, T/C (compound 3.16 µM): 97.6% [middle of 13 runs]
- viability, T/C (compound 10 µM): 93.8% [middle of 13 runs]
- pIC50 (compound alone, run of 10/31/2023): < 5.00

Structure (SMILES): COc1cc(C2c3cc4c(cc3C(OC3OC5COC(C)OC5C(O)C3O)C3COC(=O)C23)OCO4)cc(OC)c1O (configuration not stated)
- viability, T/C (compound 0.0316 µM): 90.2% and 98.8% and 103%
- viability, T/C (compound 0.1 µM): 95.9% and 102% and 93.7%
- viability, T/C (compound 0.316 µM): 85.3% and 104% and 92.5%
- viability, T/C (compound 1 µM): 97.9% and 104% and 97.5%
- viability, T/C (compound 3.16 µM): 84.4% and 99.5% and 83.6%
- viability, T/C (compound 10 µM): 42.3% and 81.9% and 37%
- pIC50 (curve of compound): 5.09 and < 5.00 and 5.14

Structure (SMILES): COc1cc2cc(C(=O)CCC(=O)O)sc2cc1OC
- viability, T/C (compound 0.0316 µM): 106% (2×) and 103%
- viability, T/C (compound 0.1 µM): 100% and 98.9% and 101%
- viability, T/C (compound 0.316 µM): 108% and 102% and 98.9%
- viability, T/C (compound 1 µM): 99.2% and 104% (2×)
- viability, T/C (compound 3.16 µM): 106% and 105% and 116%
- viability, T/C (compound 10 µM): 85.2% and 83.3% and 64.8%
- pIC50 (curve of compound): < 5.00

Structure (SMILES): COc1ccc([C@@H](O)c2cc(-c3ncnc4cc(N5CCOCC5)ccc34)c(F)cc2Cl)nn1
- viability, T/C (compound 0.0316 µM): 95.5% and 103% and 107%
- viability, T/C (compound 0.1 µM): 84.6% and 101% and 89.6%
- viability, T/C (compound 0.316 µM): 99.2% and 98.3% and 96.1%
- viability, T/C (compound 1 µM): 92.9% and 97.3% and 99.2%
- viability, T/C (compound 3.16 µM): 78.1% and 90.2% and 83.4%
- viability, T/C (compound 10 µM): 57% and 75% and 62.1%
- pIC50 (curve of compound): < 5.00

Structure (SMILES): COc1cccc(OCCCN)c1-c1cc(Nc2cnc(C#N)cn2)n[nH]1
- viability, T/C (compound 0.00316 µM): 95.3% and 103% (2×)
- viability, T/C (compound 0.01 µM): 89.9% and 104% and 99.4%
- viability, T/C (compound 0.0316 µM): 72% and 101% and 96.2%
- viability, T/C (compound 0.1 µM): 80.4% and 102% (2×)
- viability, T/C (compound 0.316 µM): 16.6% and 92.8% and 90.4%
- viability, T/C (compound 1 µM): 12.3% and 21.8% and 21.6%
- pIC50 (curve of compound): 6.76 and 6.20 and 6.21

Structure (SMILES): COc1cccc2c1C(=O)c1c(O)c3c(c(O)c1C2=O)CC(O)(C(=O)CO)CC3OC1CC(N)C(O)C(C)O1 (configuration not stated)
- viability, T/C (compound 0.0316 µM): 95.6% and 102% and 94.8%
- viability, T/C (compound 0.1 µM): 84.5% and 106% and 91.1%
- viability, T/C (compound 0.316 µM): 79.2% and 99.9% and 86.9%
- viability, T/C (compound 1 µM): 49.4% and 91.8% and 61.5%
- viability, T/C (compound 3.16 µM): 30% and 74.5% and 31.3%
- viability, T/C (compound 10 µM): 12.6% and 30.7% and 10.1%
- pIC50 (curve of compound): 5.95 and 5.22 and 5.80
